Assay results as given in US10029984B2, “Mono- or di-substituted indole derivatives as dengue viral replication inhibitors” (Janssen Pharmaceuticals, Inc., priority 2015, dated 2018).
pEC50: −log10 of the molar value.

Assays:
[1] = Chiral stability at pH 7.4 (enantiomeric excess by Chiral SFC after incubation); format: physicochemical; conditions: buffered solution pH 7.4, 5 μM
Method: The chiral stability of Enantiomer 10B (R=OMe) was evaluated by determination of the enantiomeric excess (ee %) after incubation for 24 h and 48 h in a buffered solution at pH 7.4 at 40° C. and 60° C. To assess the influence of the methoxy-substituent of Enantiomer 10B (R=OMe) on the stability against racemization, the chiral stability of Enantiomer 10′B (R=H) was tested under the same conditions. To this end, 5 μM buffered (pH=7.4) solutions of 10B and 10′B were prepared by mixing 25 μL of a 100 μM solution of 10B and 10′B in DMSO with 475 μL aqueous buffer pH 7.4. Samples were taken 24 h and 48 h after incubation at 40° C. and 60° C. The analytical samples were analyzed by Chiral SFC (MS detection) and the chiral purity was expressed as the enantiomeric excess (ee %=% enantiomer B−% enantiomer A).

Vero cells = test: in vitro; format: cell-based; conditions: African green monkey
In short: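 On the same plates after eGFP read-out, resazurin was added and cells incubated a further 5 h at 37 °C, 5% CO2; resorufin fluorescence read with 530 nm excitation. CC50 is the concentration halving resazurin conversion versus cell control; SI = CC50/EC50.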

DENV-1 strain TC974#666 = test: Tetravalent RT-qPCR assay Protocol A, serotype 1; format: cell-based; conditions: Dengue virus, DENV1, 72 h; RT-qPCR serotype 1 TC974#666, Vero cells, day 3
Method: (§1) The antiviral activity of the compounds of the invention was tested against DENV-1 strain TC974#666 (NCPV; Table 6), DENV-2 strain 16681 (Table 7), DENV-3 strain H87 (NCPV; Table 8) and DENV-4 strains H241 (NCPV; Table 9) in a RT-qPCR assay. Therefore, Vero cells were infected with either DENV-1, or -2, or -3, or -4 in the presence or absence of test compounds. At day 3 post-infection, the cells were lysed and cell lysates were used to prepare cDNA of both a viral target (the 3′UTR of DENV; table 2) and a cellular reference gene (β-actin, table 2). Subsequently, a duplex real time PCR was performed on a Lightcycler480 instrument. The generated Cp value is inversely proportional to the amount of RNA expression of these targets. Inhibition of DENV replication by a test compound result in a shift of Cp's for the 3′UTR gene. On the other hand, if a test compound is toxic to the cells, a similar effect on β-actin expression will be observed. The comparative ΔΔCp method is used to calculate EC50, which is based on the relative gene expression of the target gene (3′UTR) normalized with the cellular housekeeping gene (β-actin).
(§2) The culture medium consisted of minimal essential medium supplemented with 2% of heat-inactivated fetal calf serum, 0.04% gentamycin (50 mg/mL) and 2 mM of L-glutamine. Vero cells, obtained from ECACC, were suspended in culture medium and 75 μL/well was added in 96-well plates (10000 cells/well), which already contain the antiviral compounds. Typically, these plates contain a 4-fold serial dilution of 9 dilution steps of the test compound at 200 times the final concentration in 100% DMSO (500 nL; final concentration range: 25 μM-0.00038 μM). In addition, each plate contains wells which are assigned as virus controls (containing cells and virus in the absence of compound) and cell controls (containing cells in the absence of virus and compound). Once the cells were added in the plates, the plates were incubated in a fully humidified incubator (37° C., 5% CO2) until the next day. Then, DENV-1 strain TC974#666 at an MOI of 0.6, DENV-2 strain 16681 at an MOI of 0.01, DENV-3 strain H87 at an MOI of 1.0 and DENV-4 strains H241 at an MOI of 0.2 and SG/06K2270DK1/2005 at an MOI of 0.16, were added. Therefore, 25 μL of virus suspension was added to all the wells containing test compound and to the wells assigned as virus control. In parallel, 25 μL of culture medium was added to the cell controls. Next, the plates were incubated for 3 days in a fully humidified incubator (37° C., 5% CO2). After 3 days, the supernatant was removed from the wells and the cells were washed twice with ice-cold PBS (˜100 μL). The cell pellets within the 96-well plates were stored at −80° C. for at least 1 day. Next, RNA was extracted using the Cells-to-CT™ lysis kit, according to the manufacture's guideline (Applied Biosystems). The cell lysates can be stored at −80° C. or immediately used in the reverse transcription step.
(§3) In preparation of the reverse transcription step, mix A (table 3A) was prepared and 7.57 μL/well was dispensed in a 96-well plate. After addition of 5 μL of the cell lysates, a five minute denaturation step at 75° C. was performed (table 3B). Afterwards, 7.43 μL of mix B was added (table 3C) and the reverse transcription step was initiated (table 3D) to generate cDNA.
(§4) Finally, a RT-qPCR mix was prepared, mix C (table 4A), dispensed in 96-well LightCycler qPCR plates to which 3 μL of cDNA was added and the qPCR was performed according to the conditions in table 4B on a LightCycler 480. Using the LightCycler software and an in-house LIMS system, dose response curves for each compound were calculated and the half maximal effective concentration (EC50) and the half maximal cytotoxic concentration (CC50) were determined.

DENV-3 strain H87 = test: Tetravalent RT-qPCR assay Protocol A, serotype 3; format: cell-based; conditions: Dengue virus, DENV3, 72 h; RT-qPCR serotype 3 H87, Vero cells, day 3
Method: as §1, §2, §3, §4

DENV-4 strains H241 = test: Tetravalent RT-qPCR assay Protocol A, serotype 4; format: cell-based; conditions: Dengue virus, DENV4, 72 h; RT-qPCR serotype 4 H241, Vero cells, day 3
Method: as §1, §2, §3, §4

in vitro = format: cell-based; conditions: African green monkey, CC50
Method: as §1, §2, §4

## COc1cc(NC(C(=O)c2c[nH]c3cc(OC)c(C)cc23)c2ccc(F)cc2OC)cc(S(C)(=O)=O)c1 (single isomer, unassigned) [Enantiomer 10B, 2-(4-fluoro-2-methoxyphenyl)-2-((3-methoxy-5-(methylsulfonyl)phenyl)amino)-1-(6-methoxy-5-methyl-1H-indol-3-yl)ethanone]
[1]; 40° C., 24 h
  ee %: 100%
[1]; 40° C., 48 h
  ee %: 100%
[1]; 60° C., 24 h
  ee %: 97%
[1]; 60° C., 48 h
  ee %: 97%
Vero cells
  CC50: 4.5 µM
DENV-1 strain TC974#666
  pEC50: 8.35
DENV-3 strain H87
  pEC50: 7.26
DENV-4 strains H241
  pEC50: 6.96
In vitro
  CC50 at 3 days: 5.14 µM
